Reference: ChEMBL document CHEMBL4507263, “Data for DCP probe BAY-474” (2021)

Columns and labels:
[1] = biological target: Glucocorticoid receptor (Homo sapiens) (UniProt P04150); assay: Glucocorticoid Eurofins-Panlabs radioligand binding assay; conditions: Compound concentration 10.0 uM
[2] = biological target: RAC-gamma serine/threonine-protein kinase (Homo sapiens) (UniProt Q9Y243); assay: PKBgamma (h) Millipore kinase activity assay; conditions: Compound concentration 1.0 uM
[3] = biological target: BDNF/NT-3 growth factors receptor (Homo sapiens) (UniProt Q16620); assay: TrkB (h) Millipore kinase activity assay; conditions: Compound concentration 1.0 uM
[4] = biological target: Vascular endothelial growth factor receptor 2 (Homo sapiens) (UniProt P35968); assay: KDR (h) Millipore kinase activity assay; conditions: Compound concentration 1.0 uM
[5] = biological target: Dual specificity protein kinase CLK3 (Homo sapiens) (UniProt P49761); assay: CLK3 (h) Millipore kinase activity assay; conditions: Compound concentration 1.0 uM
[6] = biological target: Ribosomal protein S6 kinase alpha-2 (Homo sapiens) (UniProt Q15349); assay: Rsk3 (h) Millipore kinase activity assay; conditions: Compound concentration 1.0 uM
Chain of Ribosomal protein S6 kinase alpha-2 (Homo sapiens) (Q15349 whole entry): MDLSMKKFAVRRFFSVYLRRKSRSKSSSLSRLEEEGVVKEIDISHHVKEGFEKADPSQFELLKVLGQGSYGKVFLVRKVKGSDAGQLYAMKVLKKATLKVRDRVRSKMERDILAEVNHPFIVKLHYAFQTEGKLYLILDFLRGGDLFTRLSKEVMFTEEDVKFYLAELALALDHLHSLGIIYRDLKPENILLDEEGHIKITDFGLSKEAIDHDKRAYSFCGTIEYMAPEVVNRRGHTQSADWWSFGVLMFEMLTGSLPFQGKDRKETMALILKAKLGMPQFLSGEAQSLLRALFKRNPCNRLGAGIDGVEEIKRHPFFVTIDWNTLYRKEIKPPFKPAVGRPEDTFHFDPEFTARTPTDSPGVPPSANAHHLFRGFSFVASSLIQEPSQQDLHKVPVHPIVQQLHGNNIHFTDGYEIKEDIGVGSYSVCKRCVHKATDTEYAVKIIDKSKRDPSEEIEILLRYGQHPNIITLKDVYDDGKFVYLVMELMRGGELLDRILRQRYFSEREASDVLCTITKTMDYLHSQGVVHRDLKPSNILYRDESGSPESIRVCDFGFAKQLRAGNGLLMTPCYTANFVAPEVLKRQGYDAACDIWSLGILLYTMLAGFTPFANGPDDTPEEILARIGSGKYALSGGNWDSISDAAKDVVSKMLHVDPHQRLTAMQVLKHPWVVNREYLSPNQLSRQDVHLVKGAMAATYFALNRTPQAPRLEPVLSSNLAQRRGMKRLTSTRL

[7] = biological target: Platelet-derived growth factor receptor alpha (Homo sapiens) (UniProt P16234); assay: PDGFRalpha (h) Millipore kinase activity assay; conditions: Compound concentration 1.0 uM
[8] = biological target: B1 bradykinin receptor (Homo sapiens) (UniProt P46663); assay: Inhibition of Bradykinin B1 at 10 µM in the Eurofins-Panlabs radioligand binding assay (Eurofins_assay_212510); conditions: Compound concentration 10.0 uM
[9] = biological target: Tyrosine-protein kinase ABL1 (Homo sapiens) (UniProt P00519); assay: Abl (h) Millipore kinase activity assay; conditions: Compound concentration 1.0 uM
[10] = biological target: Kappa-type opioid receptor (Homo sapiens) (UniProt P41145); conditions: Compound concentration 10.0 uM
Chain of Kappa-type opioid receptor (Homo sapiens) (P41145 whole entry): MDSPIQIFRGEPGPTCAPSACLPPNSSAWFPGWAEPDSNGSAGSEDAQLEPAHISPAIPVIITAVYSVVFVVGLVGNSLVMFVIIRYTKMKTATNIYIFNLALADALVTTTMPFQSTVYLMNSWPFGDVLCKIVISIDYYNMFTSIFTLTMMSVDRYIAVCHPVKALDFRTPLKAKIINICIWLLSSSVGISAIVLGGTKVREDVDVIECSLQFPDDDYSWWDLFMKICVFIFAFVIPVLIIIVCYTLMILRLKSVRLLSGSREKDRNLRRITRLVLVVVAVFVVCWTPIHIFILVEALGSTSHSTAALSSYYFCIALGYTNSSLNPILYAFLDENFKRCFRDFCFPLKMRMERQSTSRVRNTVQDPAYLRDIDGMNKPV

[11] = biological target: Histamine H1 receptor (Homo sapiens) (UniProt P35367); conditions: Compound concentration 10.0 uM
[12] = biological target: Serine/threonine-protein kinase 10 (Homo sapiens) (UniProt O94804); conditions: Compound concentration 1000.0 nM
[13] = biological target: Dual serine/threonine and tyrosine protein kinase (Homo sapiens) (UniProt Q6XUX3); conditions: Compound concentration 1000.0 nM
[14] = biological target: GABA-A receptor; anion channel (Rattus norvegicus) (UniProt O09028+P15431+P18506+P18508+P19969+P20236+P23574+P23576+P28471+P28473+P30191+P62813+P63079+P63138+Q91ZM7+Q9ES14); conditions: Compound concentration 10.0 uM
[15] = biological target: Serine/threonine-protein kinase B-raf (Homo sapiens) (UniProt P15056); conditions: Compound concentration 1000.0 nM
[16] = tested on: Serine/threonine-protein kinase B-raf (Homo sapiens), P15056 [V600E]; conditions: Compound concentration 1000.0 nM
[17] = biological target: T1, cGMP-dependent protein kinase 1 (Homo sapiens) (UniProt Q13976); conditions: Compound concentration 1000.0 nM
T1 sequence (whole entry): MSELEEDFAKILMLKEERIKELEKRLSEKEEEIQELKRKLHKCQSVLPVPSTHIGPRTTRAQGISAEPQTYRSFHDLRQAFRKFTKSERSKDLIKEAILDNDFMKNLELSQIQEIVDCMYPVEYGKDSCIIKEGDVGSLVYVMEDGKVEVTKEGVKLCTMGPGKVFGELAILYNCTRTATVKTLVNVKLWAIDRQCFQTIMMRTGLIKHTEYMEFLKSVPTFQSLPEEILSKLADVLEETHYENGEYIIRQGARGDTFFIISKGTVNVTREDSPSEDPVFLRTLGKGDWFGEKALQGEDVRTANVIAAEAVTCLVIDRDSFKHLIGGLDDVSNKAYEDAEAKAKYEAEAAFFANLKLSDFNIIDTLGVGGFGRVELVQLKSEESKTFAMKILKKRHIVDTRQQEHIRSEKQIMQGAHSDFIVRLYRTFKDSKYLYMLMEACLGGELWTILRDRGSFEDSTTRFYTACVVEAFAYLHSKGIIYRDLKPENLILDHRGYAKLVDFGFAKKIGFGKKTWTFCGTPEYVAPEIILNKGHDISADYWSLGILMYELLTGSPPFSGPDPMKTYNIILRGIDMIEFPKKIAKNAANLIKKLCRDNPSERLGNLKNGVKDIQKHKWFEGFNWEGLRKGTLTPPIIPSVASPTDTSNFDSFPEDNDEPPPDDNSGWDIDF

[18] = biological target: RAC-alpha serine/threonine-protein kinase (Homo sapiens) (UniProt P31749); conditions: Compound concentration 1000.0 nM
[19] = tested on: Phosphatidylinositol 4,5-bisphosphate 3-kinase catalytic subunit alpha isoform (Homo sapiens), P42336 [Q546K]; conditions: Compound concentration 1000.0 nM
[20] = biological target: Casein kinase I isoform epsilon (Homo sapiens) (UniProt P49674); conditions: Compound concentration 1000.0 nM
[21] = biological target: Phosphatidylinositol 4,5-bisphosphate 3-kinase catalytic subunit gamma isoform (Homo sapiens) (UniProt P48736); conditions: Compound concentration 1000.0 nM
Chain of Phosphatidylinositol 4,5-bisphosphate 3-kinase catalytic subunit gamma isoform (Homo sapiens) (P48736 whole entry, looked up, canonical isoform): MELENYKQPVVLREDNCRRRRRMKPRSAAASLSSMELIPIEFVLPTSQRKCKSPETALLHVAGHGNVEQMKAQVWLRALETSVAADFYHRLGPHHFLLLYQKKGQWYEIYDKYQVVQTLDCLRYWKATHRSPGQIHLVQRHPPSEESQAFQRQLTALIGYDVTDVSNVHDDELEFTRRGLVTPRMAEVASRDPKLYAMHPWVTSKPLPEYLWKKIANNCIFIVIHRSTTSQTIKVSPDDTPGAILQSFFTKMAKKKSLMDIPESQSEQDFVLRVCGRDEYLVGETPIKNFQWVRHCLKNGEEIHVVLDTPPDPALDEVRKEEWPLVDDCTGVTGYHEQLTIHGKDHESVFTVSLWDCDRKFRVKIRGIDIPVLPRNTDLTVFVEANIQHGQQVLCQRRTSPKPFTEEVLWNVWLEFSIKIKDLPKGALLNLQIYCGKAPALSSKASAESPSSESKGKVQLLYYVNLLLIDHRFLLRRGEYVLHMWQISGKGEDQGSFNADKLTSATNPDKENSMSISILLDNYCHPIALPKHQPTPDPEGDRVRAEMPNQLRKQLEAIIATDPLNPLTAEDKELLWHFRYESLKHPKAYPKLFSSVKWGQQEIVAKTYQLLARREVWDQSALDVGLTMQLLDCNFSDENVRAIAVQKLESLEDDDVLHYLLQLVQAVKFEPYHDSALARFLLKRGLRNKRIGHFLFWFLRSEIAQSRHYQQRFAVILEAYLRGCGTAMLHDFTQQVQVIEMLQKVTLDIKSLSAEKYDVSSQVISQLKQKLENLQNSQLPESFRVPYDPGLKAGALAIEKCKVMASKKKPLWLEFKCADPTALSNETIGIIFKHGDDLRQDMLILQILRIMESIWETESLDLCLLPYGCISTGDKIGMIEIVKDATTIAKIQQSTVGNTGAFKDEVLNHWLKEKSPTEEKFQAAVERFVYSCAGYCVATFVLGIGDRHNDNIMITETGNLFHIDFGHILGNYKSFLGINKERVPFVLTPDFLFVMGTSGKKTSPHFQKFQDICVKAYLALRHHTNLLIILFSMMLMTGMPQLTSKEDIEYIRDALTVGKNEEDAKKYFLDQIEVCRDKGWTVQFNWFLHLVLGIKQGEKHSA

[22] = biological target: Mitogen-activated protein kinase kinase kinase 6 (Homo sapiens) (UniProt O95382); conditions: Compound concentration 1000.0 nM
[23] = biological target: Mitogen-activated protein kinase kinase kinase kinase 5 (Homo sapiens) (UniProt Q9Y4K4); conditions: Compound concentration 1000.0 nM
[24] = biological target: Mitogen-activated protein kinase kinase kinase 15 (Homo sapiens) (UniProt Q6ZN16); conditions: Compound concentration 1000.0 nM
Chain of Mitogen-activated protein kinase kinase kinase 15 (Homo sapiens) (Q6ZN16 whole entry): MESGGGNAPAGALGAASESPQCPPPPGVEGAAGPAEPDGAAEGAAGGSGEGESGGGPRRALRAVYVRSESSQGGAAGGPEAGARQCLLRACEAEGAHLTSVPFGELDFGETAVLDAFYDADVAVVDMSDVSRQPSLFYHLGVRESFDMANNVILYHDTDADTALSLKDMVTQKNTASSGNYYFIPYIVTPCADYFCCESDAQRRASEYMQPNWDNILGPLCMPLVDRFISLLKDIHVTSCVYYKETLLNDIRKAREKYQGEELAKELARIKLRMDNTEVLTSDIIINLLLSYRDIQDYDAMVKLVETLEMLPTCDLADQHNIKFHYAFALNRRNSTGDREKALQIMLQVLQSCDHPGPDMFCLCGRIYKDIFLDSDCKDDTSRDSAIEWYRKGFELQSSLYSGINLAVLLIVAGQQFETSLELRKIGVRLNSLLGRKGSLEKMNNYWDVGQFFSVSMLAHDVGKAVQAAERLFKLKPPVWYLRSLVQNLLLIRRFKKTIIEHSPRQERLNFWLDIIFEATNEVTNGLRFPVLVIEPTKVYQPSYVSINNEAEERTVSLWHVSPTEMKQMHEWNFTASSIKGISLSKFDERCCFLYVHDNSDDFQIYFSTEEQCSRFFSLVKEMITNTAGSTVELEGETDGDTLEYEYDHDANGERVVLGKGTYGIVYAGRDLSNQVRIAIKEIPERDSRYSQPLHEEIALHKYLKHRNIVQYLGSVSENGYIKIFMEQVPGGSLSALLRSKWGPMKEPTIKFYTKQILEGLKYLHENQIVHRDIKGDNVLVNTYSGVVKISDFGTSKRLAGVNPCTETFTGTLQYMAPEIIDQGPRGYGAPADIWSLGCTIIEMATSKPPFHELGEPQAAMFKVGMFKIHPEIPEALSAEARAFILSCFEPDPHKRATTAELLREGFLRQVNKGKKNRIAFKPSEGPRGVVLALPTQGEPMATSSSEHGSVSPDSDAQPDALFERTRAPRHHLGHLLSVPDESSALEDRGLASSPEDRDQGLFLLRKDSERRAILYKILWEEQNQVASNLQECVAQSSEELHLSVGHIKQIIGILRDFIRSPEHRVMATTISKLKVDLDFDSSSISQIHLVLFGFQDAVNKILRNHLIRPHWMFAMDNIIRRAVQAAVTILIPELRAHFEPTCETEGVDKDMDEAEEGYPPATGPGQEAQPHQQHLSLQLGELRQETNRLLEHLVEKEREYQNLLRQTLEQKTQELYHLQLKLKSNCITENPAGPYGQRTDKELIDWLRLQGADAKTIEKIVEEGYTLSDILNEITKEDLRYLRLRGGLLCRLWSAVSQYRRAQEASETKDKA

[25] = biological target: Mast/stem cell growth factor receptor Kit (Homo sapiens) (UniProt P10721); conditions: Compound concentration 1000.0 nM
[26] = biological target: Cyclin-dependent kinase 14 (Homo sapiens) (UniProt O94921); conditions: Compound concentration 1000.0 nM
[27] = biological target: Sodium-dependent noradrenaline transporter (Homo sapiens) (UniProt P23975); conditions: Compound concentration 10.0 uM
Chain of Sodium-dependent noradrenaline transporter (Homo sapiens) (P23975 whole entry): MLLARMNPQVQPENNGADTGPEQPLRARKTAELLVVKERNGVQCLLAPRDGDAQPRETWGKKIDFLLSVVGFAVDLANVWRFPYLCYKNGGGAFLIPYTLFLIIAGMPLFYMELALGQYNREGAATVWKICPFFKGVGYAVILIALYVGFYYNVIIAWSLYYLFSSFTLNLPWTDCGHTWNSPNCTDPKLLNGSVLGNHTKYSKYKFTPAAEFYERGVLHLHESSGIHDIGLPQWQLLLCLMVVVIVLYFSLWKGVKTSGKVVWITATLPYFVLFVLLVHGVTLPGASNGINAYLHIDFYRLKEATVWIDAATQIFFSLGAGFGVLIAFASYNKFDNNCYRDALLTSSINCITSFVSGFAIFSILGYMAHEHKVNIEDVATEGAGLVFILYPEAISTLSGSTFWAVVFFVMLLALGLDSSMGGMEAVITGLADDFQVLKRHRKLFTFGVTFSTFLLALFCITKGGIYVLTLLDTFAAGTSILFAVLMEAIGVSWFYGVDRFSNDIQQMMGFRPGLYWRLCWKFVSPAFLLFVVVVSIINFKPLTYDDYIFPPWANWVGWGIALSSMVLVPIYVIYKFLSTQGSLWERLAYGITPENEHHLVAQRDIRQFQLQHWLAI

[28] = biological target: Serine/threonine-protein kinase Sgk3 (Homo sapiens) (UniProt Q96BR1); conditions: Compound concentration 1000.0 nM
[29] = biological target: Calcium/calmodulin-dependent protein kinase type II subunit beta (Homo sapiens) (UniProt Q13554); conditions: Compound concentration 1000.0 nM
[30] = biological target: Membrane-associated tyrosine- and threonine-specific cdc2-inhibitory kinase (Homo sapiens) (UniProt Q99640); conditions: Compound concentration 1000.0 nM
[31] = tested on: Mast/stem cell growth factor receptor Kit (Homo sapiens), P10721 [L576P]; conditions: Compound concentration 1000.0 nM
[32] = biological target: Tyrosine-protein kinase ABL2 (Homo sapiens) (UniProt P42684); conditions: Compound concentration 1000.0 nM
[33] = biological target: Mitogen-activated protein kinase 7 (Homo sapiens) (UniProt Q13164); conditions: Compound concentration 1000.0 nM
Chain of Mitogen-activated protein kinase 7 (Homo sapiens) (Q13164 2-816 limits assumed): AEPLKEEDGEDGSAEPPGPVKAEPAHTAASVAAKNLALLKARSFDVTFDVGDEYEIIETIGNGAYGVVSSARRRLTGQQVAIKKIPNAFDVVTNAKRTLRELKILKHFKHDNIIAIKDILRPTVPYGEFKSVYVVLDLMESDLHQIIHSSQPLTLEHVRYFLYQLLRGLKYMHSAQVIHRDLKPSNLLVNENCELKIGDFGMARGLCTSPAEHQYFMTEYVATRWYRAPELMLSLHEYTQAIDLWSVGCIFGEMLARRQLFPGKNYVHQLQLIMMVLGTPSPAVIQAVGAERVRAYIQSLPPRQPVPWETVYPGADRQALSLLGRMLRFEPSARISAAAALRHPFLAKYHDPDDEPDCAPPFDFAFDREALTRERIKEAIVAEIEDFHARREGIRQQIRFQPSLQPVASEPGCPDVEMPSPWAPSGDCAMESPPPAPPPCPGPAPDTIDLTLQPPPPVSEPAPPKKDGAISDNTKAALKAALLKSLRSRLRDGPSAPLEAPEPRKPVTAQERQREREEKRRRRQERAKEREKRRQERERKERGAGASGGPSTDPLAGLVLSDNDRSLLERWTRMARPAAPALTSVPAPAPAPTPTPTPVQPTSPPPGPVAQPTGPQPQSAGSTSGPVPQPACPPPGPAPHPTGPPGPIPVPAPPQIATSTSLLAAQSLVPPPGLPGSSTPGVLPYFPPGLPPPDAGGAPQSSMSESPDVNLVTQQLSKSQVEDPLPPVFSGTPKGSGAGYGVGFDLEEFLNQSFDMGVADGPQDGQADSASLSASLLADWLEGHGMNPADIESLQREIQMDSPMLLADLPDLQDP

[34] = biological target: Tyrosine-protein kinase Fyn (Homo sapiens) (UniProt P06241); conditions: Compound concentration 1000.0 nM
[35] = biological target: Cyclin-dependent kinase 2 homolog (Plasmodium falciparum (isolate 3D7)) (UniProt P61075); conditions: Compound concentration 1000.0 nM

CC1=C(C#N)C(c2ccc3[nH]nc(C)c3c2)C(C#N)=C(C)N1 [BAY-474]
inactive: inhibition [1] 12% | inhibition [2] -4% | inhibition [3] -2% | inhibition [4] 4% | inhibition [5] -1% | inhibition [6] 51% | inhibition [7] -2% | inhibition [8] 6% | inhibition [9] -2% | inhibition [10] 8.26% | inhibition [11] 1%

CC1=C(C#N)[C@@H](c2ccc3[nH]nc(C)c3c2)C(C#N)=C(c2ccc(Cl)cc2)N1 [BAY-827]
inactive: residual activity [12] 100% | residual activity [13] 100% | inhibition [14] -7.24% | residual activity [15] 100% | residual activity [16] 100% | residual activity [17] 86.9% | residual activity [18] 100% | residual activity [19] 93.7% | residual activity [20] 91.7% | residual activity [21] 100% | residual activity [22] 83.2% | residual activity [23] 54% | residual activity [24] 100% | residual activity [25] 71.2% | residual activity [26] 94.4% | inhibition [27] 8.56% | residual activity [28] 84.5% | residual activity [29] 100% | residual activity [30] 100% | residual activity [31] 100% | residual activity [32] 100% | residual activity [33] 90% | residual activity [34] 69% | residual activity [35] 92.5%
